Literature values in patent US20060134244A1, “Breast health supplement and detoxification preparations” (priority 2004, published 2006).

Legend:
[1] = tested on: precancerous lesions of the cervix and laryngeal papillomas; conditions: pathologies with a human papillomavirus (HPV); reported
[2] = oral administration; reported

c1ccc2c(Cc3c[nH]c4ccccc34)c[nH]c2c1 [DIM, 3,3′-diindolylmethane]
clinical effectiveness in treating precancerous lesions of the cervix and laryngeal papillomas [1]: clinically effective

O=C(O)CN(CCN(CC(=O)O)CC(=O)O)CC(=O)O [EDTA, ethylenediamine-N,N,N′,N′-tetraacetic acid]
unabsorbed EDTA that remains within the digestive tract [2]: 95%

OCc1c[nH]c2ccccc12 [Example I3C, indole-3-carbinol]
clinical effectiveness in treating precancerous lesions of the cervix and laryngeal papillomas [1]: clinically effective
